Measured values reported in article PMC4721923 (PLoS ONE, 2015).
Read-outs that look alike come from different tables or passages of the source.

Legend:
[1] = test system: p53 in HT-29 cells; test: p53 expression by immunoblotting, HT-29; assay type: cell-based, human; conditions: HT-29 nuclear extracts; 10 μM; 24 hours
Protocol: The expression of the tumor suppressor p53 by NCI-H460 and HT-29 cells was determined after incubating the cells with compounds 1, 2, 4 and 5 at different concentrations for 24 hours. The cells (from a 10-cm culture dish, 70% confluency) were washed twice with PBS and harvested by scraping after addition of ice-cold buffer A (10 mM HEPES pH = 7.9, 10 mM KCl, 0.1 mM EDTA, 0.1 mM EGTA, protease inhibitor mix (Sigma-Aldrich)). After adding Nonidet P-40 (NP-40) (Sigma, Taufkirchen, Germany) to a final concentration of 1%, the cell suspensions were vortexed and subsequently centrifuged at 13000 g and 4°C for 30 seconds. The pellets were re-suspended in buffer B (buffer A + 400 mM NaCl, 1% NP-40) and gently agitated using a Sarmix M2000 (Sarstedt, Nümbrecht, Germany) at 4°C for 15 min, followed by centrifugation (13000 g, 4°C, 5 min; Microfuge; Eppendorf, Hamburg, Germany). The concentration of soluble protein was determined according to Bradford using the Bio-Rad Protein Assay (Bio-Rad Laboratories, Munich, Germany).
An amount of 30 μg total protein of each sample and 8 μL of a biotinylated molecular weight standard (1:6 dilution) (Cell Signaling, Danvers, MA, USA) was separated by SDS-PAGE (12% gel) and afterwards electroblotted (150 V, 30 min) to nitrocellulose membrane (Peqlab, Erlangen, Germany). To prevent unspecific binding, the membranes were treated with milk powder (5% (m/v) in buffer (150 mM NaCl, 20 mM Tris, 0.1% Tween 20, pH = 7.6)) before incubation with anti-p53 rabbit mAb (dilution 1:1000) (Cell Signaling) and anti-histone H2B Ab (dilution 1:1000) (Cell Signaling) as loading control at 4°C for 14 hours. The primary antibodies and the “protein ladder” were simultaneously detected with a horseradish peroxidase (HRP)-coupled donkey anti rabbit mAb (dilution 1:1000) (Santa Cruz biotechnology, Heidelberg, Germany) or the anti-biotin HRP-coupled antibody (dilution 1:5000) (Cell Signaling), respectively. The incubation with the secondary antibody was performed at room temperature for 1 hour. The bands were detected by […] using the Pierce ECL Western Blotting Substrate (Thermo Scientific, Dreieich, Germany). After exposure, the x-ray film (Amersham Hyperfilm ECL, GE Healthcare, München, Germany) was developed (CAWOMAT 2000 IR, CAWO, Schrobenhausen, Germany) and analyzed using a GS-710 imaging densitometer and Quantity One V. 4 software (Bio-Rad Laboratories, Munich, Germany).

[2] = test system: LNCaP cells (prostate cancer); test: Chemosensitivity assay (MTT-assay), LNCaP; assay type: cell-based, human; conditions: 96 hours of incubation, mean ± SEM
Protocol: (§1) Depending on the characteristics of the cells, two different assays were performed. For adherently growing cells (HaCaT, HT-29, NCI-H460, SK-MEL-3, MG-63, Capan-1), cytotoxic and cytocidal effects were determined in the crystal violet assay, whereas for loosely adherent cells (LNCaP, SK-ES-1) and cells growing in suspension (HEL 92.1.7, Jurkat, U-937) the MTT-assay was used with minor modifications. In brief, 1.5 · 10^3 (HaCaT, HT-29, NCI-H460, SK-MEL-3, MG-63, Capan-1) or 5 · 10^3 (Jurkat, U-937, HEL92.1.7, LNCaP, SK-ES-1) cells per well were seeded into flat-bottom 96-well plates (Sarstedt, Nümbrecht, Germany). All compounds were used as solutions prepared in DMSO and tested at final concentrations (8 replicates per concentration) of 1, 3, 10, 30 and 50 μM. In case of the vehicle control and test compounds, the final DMSO concentration amounted to 0.1%. Absorbance was measured at 580 nm in a 96-well plate reader (GENios pro microplate reader, Tecan, Salzburg, Austria). Effects were quantified as previously described for both assays.

[3] = test system: p53 in various tumor cell types; parameters: method as in PMID 17653574; conditions: cited from earlier work
[4] = test system: Jurkat cells; parameters: method as in Hiraoka et al. 50; conditions: ref Hiraoka et al. 50; cited from earlier work
[5] = test system: myeloma cells; parameters: method as in PMID 17653574, PMID 23380051; conditions: cited from earlier work
[6] = test system: Capan-1 cells (pancreatic adenocarcinoma); test: Chemosensitivity assay (crystal violet assay), Capan-1; assay type: cell-based, human; conditions: 96 hours of incubation, mean ± SEM
Protocol: as §1

[7] = test system: HaCaT cells (spontaneously immortalized human keratinocytes); test: Kinetic toxicity assay (crystal violet) on HaCaT cells; assay type: cell-based; conditions: kinetic assay, 0.1, 1 and 10 μM, 5 days
Protocol: as §1, with “All compounds were used as solutions prepared in DMSO and tested at final concentrations (8 replicates per concentration) of 1, 3, 10, 30 and 50 μM.” left out

Row | Compound | p53 expression [1] | IC50 [2] | IC50 ([2]; Homo sapiens, read-out: IC50) | concentration required for significant induction of p53 expression [3] | IC50 [4] | IC50 [5] | IC50 [6] | IC50 ([6]; Homo sapiens, CAPAN-1, 96 h) | toxicity on HaCaT cells compared to tumor cells [7]
1 | Cn1c(CCCC(=O)O)nc2cc(N(CCCl)CCCl)ccc21 [Compound 1, bendamustine, reference compound] | slight induction | only very weakly active | 77900 ± 5600 nM | ≥ 80 µM | ~50000 nM | ~100000 nM | 18900 ± 4500 nM | < 20000 nM | –
2 | COC(=O)CCCc1nc2cc(N(CCCl)CCCl)ccc2n1C [Compound 2] | increased the expression of p53 | – | 950 ± 150 nM | – | – | – | – | 600 ± 40 nM | –
3 | Cn1c(CCCC(=O)OCCN2CCOCC2)nc2cc(N(CCCl)CCCl)ccc21 [Compound 4] | increased the expression of p53 | – | 2200 ± 100 nM | – | – | – | – | 1400 ± 10 nM | preferential toxicity against tumor cells
4 | Cn1c(CCCC(=O)OCCN2CCCC2)nc2cc(N(CCCl)CCCl)ccc21 [Compound 5] | increased the expression of p53 | – | 500 ± 80 nM | – | – | – | – | 120 ± 20 nM | preferential toxicity against tumor cells
